Test results from patent US4263280A, “Synergistic mixtures” (priority 1978, dated 1981).
Counter-ions that a name gives are not always drawn.

Columns and labels:
[1] = system: Escherichia coli 205 RTEM^+; assay: systemic infection in mice, survival, Escherichia coli 205 RTEM+; type: in vivo; conditions: 1.2 mg/kg s.c., fifth day
Protocol: (§1) The combination substances A and B are diluted in 1:3 to 1:3.3 steps such that the average concentration contains the respective amount of substance A and substance B corresponding to the ED50.
(§2) Female MF 2 mice weighing 18 to 22 g are divided at random into groups (n=20) and infected intraperitoneally with a standardised bacteria suspension which, according to strain, represents 5 to >20 LD50.
(§3) Immediately after the infection, and 3 hours later, the mice are treated in groups subcutaneously with dilutions of substances A and B as well as with combinations thereof. These combinations are prepared shortly before administration by mixing each dilution of substance A with each dilution of substance B. The survival rates are determined on the fifth day after the infection. The survival rates of mice which are determined with each of substances A and B alone are compared with those obtained with the combinations of these substances. A combination which has protected more animals from death than would be expected from the independent action of the substances, is designated as having synergistic action.
(§4) The survival rates, expressed as percentages of surviving animals, found in infections with a number of pure micro-organisms and in polyinfections is reported in Table 2 for cefsulodin sodium, mecillinam, mezlocillin, gentamicin and CGP 14 221/E, as well as for corresponding mixtures.

[2] = system: Klebsiella pneumoniae 327; assay: systemic infection in mice, survival, Klebsiella pneumoniae 327; type: in vivo; conditions: fifth day
Protocol: as §1, §2, §3, §4

[3] = system: Klebsiella pneumoniae 329 + Escherichia coli 205; assay: systemic polyinfection in mice, survival, Klebsiella pneumoniae 329 + Escherichia coli 205; type: in vivo; conditions: 20 mg/kg s.c., fifth day
Protocol: as §1, §2, §3, §4

Escherichia coli 205 = assay: systemic infection in mice, survival, Escherichia coli 205; type: in vivo; conditions: fifth day
Protocol: as §1, §2, §3, §4

[4] = system: Klebsiella pneumoniae 1136; assay: in vitro MIC, chessboard microdilution, Klebsiella pneumoniae 1136; type: cell-based
Protocol: (§5) The combination substances A and B are diluted in DST broth OXOID in chessboard arrangement with the aid of microtitre system in 1:2 steps. All the concentrations of substance A are combined with all the concentrations of substance B and then inoculated with a standardised bacteria suspension (final concentration about 10^4 bacilli/ml). After incubation for 18 hours at 37° C., the inhibition of the bacterial growth is determined. The inhibiting concentrations are converted by the method of Kerry et al. (J. Antimicrob. […] By way of example, a number of the MIC values for the action of cefsulodin sodium, mecillinam, mezlocillin and gentamicin alone against a number of micro-organisms, as well as the MIC values for a number of mixtures in which synergism occurs, are reported in Table 1.

Escherichia coli 12-44 = assay: in vitro MIC, chessboard microdilution, Escherichia coli 12-44; type: cell-based
Protocol: as §5

[5] = system: Klebsiella pneumoniae 329; assay: systemic infection in mice, survival, Klebsiella pneumoniae 329; type: in vivo; conditions: fifth day
Protocol: as §1, §2, §3, §4

Proteus rettgeri 1121 = assay: in vitro MIC, chessboard microdilution, Proteus rettgeri 1121; type: cell-based
Protocol: as §5

[6] = system: Kiebsiella pneumoniae 1132; assay: in vitro MIC, chessboard microdilution, Klebsiella pneumoniae 1132; type: cell-based
Protocol: as §5

[7] = system: Pseudomonas aeruginosa 799A; assay: in vitro MIC, chessboard microdilution, Pseudomonas aeruginosa 799A; type: cell-based
Protocol: as §5

Proteus mirabilis 1077 = assay: in vitro MIC, chessboard microdilution, Proteus mirabilis 1077; type: cell-based
Protocol: as §5

[8] = system: Pseudomonas aeruginosa G 121; assay: in vitro MIC, chessboard microdilution, Pseudomonas aeruginosa G 121; type: cell-based
Protocol: as §5

Staphylococcus aureus = assay: in vitro MIC, chessboard microdilution, Staphylococcus aureus; type: cell-based
Protocol: as §5

Klebsiella pneumoniae 1 = assay: in vitro MIC, chessboard microdilution, Klebsiella pneumoniae 1; type: cell-based
Protocol: as §5

[9] = known β-lactamase inhibitors themselves; cited from earlier work
[10] = system: Pseudomonas aeruginosa 410; assay: in vitro MIC, chessboard microdilution, Pseudomonas aeruginosa 410; type: cell-based
Protocol: as §5

Escherichia coli 576 = assay: in vitro MIC, chessboard microdilution, Escherichia coli 576; type: cell-based
Protocol: as §5

[11] = system: Pseudomonas aeruginosa + Escherichia coli; assay: experimental pyelonephritis (polyinfection) in mice, Pseudomonas aeruginosa + Escherichia coli; type: in vivo; conditions: percentage of animals, 1 mg/kg s.c.
Protocol: (§6) Mice are treated intravenously with 10 mg/kg of carrageenin. Seven days later they are infected with a standardised suspension of bacteria. […] Two days after the last treatment, the mice are sacrificed, dissected and examined for the number of germs in the kidneys.

[12] = system: Pseudomonas aeruginosa 1140; assay: in vitro MIC, chessboard microdilution, Pseudomonas aeruginosa 1140; type: cell-based
Protocol: as §5

[13] = system: Pseudomonas aeruginosa + Klebsiella pneumoniae; assay: experimental pyelonephritis (polyinfection) in mice, Pseudomonas aeruginosa + Klebsiella pneumoniae; type: in vivo; conditions: percentage of animals
Protocol: as §6

[14] = in combination with Cefsulodin-Na 12.5 mcg/ml

In the case of `CN(C)CCn1nnnc1SCC1=C(C(=O)O)N2C(=O)[C@@H](NC(=O)Cc3csc(N)n3)[C@H]2SC1` [CGP 14221/E, 7[2(2-lmino-1,3-thiazolin-4-yl)acetamido3-[1(3-dimethylamino)-tetrazol-5-ylthio-methyl3-cephem-4-carboxylic acid hydrochloride], the “surviving animals, antibiotic alone” value [1] is reported as 10%, the “surviving animals, antibiotic alone” value ([2]; 20 mg/kg s.c.) is reported as 0% and the “surviving animals, antibiotic alone” value ([2]; 40 mg/kg s.c.) is reported as 0%. For the same compound, the “surviving animals, antibiotic alone” value [3] was 0%, the “surviving animals, antibiotic alone” value (Escherichia coli 205; 0.62 mg/kg s.c.) was 0% and the “surviving animals, antibiotic alone” value (Escherichia coli 205; 2.5 mg/kg s.c.) was 0%.
With `CC1(C)S[C@@H]2[C@H](/N=C/N3CCCCCC3)C(=O)N2[C@H]1C(=O)O` [Mecillinam] the MIC ([4]; Klebsiella pneumoniae, 1136, alone, 18 hours, 37° C., read-out: MIC, antibiotic alone) was 1 µg/mL, the “MIC, antibiotic B in combination with A” value [4, 14] was 0.25 µg/mL and the MIC (Escherichia coli 12-44; Escherichia coli, 1244, alone, 18 hours, 37° C., read-out: MIC, antibiotic alone) was 2 µg/mL. The “MIC, antibiotic B in combination with A” value (Escherichia coli 12-44; [14]) was 0.12 µg/mL, the “surviving animals, antibiotic alone” value ([5]; 300 mg/kg s.c.) was 0% and the MIC (Proteus rettgeri 1121; Providencia rettgeri, 1121, alone, 18 hours, 37° C., read-out: MIC, antibiotic alone) was 3.2 µg/mL. For the same compound, the “MIC, antibiotic B in combination with A” value (Proteus rettgeri 1121; in combination with Cefsulodin-Na 0.4 mcg/ml) was 1.6 µg/mL, the MIC ([6]; Klebsiella pneumoniae, 1132, alone, 18 hours, 37° C., read-out: MIC, antibiotic alone) was 1 µg/mL and the “MIC, antibiotic B in combination with A” value ([6]; in combination with Cefsulodin-Na 6.2 mcg/ml) was 0.25 µg/mL. For the same compound, the “surviving animals, antibiotic alone” value (Escherichia coli 205; 1 mg/kg s.c.) was 0%, the “surviving animals, antibiotic alone” value (Escherichia coli 205; 2 mg/kg s.c.) was 0% and the MIC ([7]; Pseudomonas aeruginosa, 799A, alone, 18 hours, 37° C., read-out: MIC, antibiotic alone) was 1000 µg/mL. The “MIC, antibiotic B in combination with A” value ([7]; in combination with Cefsulodin-Na 0.25 mcg/ml) was 32 µg/mL.
With `CC1(C)S[C@@H]2[C@H](NC(=O)[C@H](NC(=O)N3CCN(S(C)(=O)=O)C3=O)c3ccccc3)C(=O)N2[C@H]1C(=O)O` [Mezlocillin] the MIC (Proteus mirabilis 1077; Proteus mirabilis, 1077, alone, 18 hours, 37° C., read-out: MIC, antibiotic alone) was 1 µg/mL, the “MIC, antibiotic B in combination with A” value (Proteus mirabilis 1077; [14]) was 0.25 µg/mL and the MIC ([8]; Pseudomonas aeruginosa, G121, alone, 18 hours, 37° C., read-out: MIC, antibiotic alone) was 25 µg/mL. For the same compound, the “MIC, antibiotic B in combination with A” value ([8]; in combination with Cefsulodin-Na 0.04 mcg/ml) was 12.5 µg/mL, the MIC (Staphylococcus aureus; Staphylococcus aureus, alone, 18 hours, 37° C., read-out: MIC, antibiotic alone) was 3.2 µg/mL and the “MIC, antibiotic B in combination with A” value (Staphylococcus aureus; in combination with Cefsulodin-Na 0.2 mcg/ml) was 1.6 µg/mL. For the same compound, the “surviving animals, antibiotic alone” value ([5]; 300 mg/kg s.c.) was 0%, the MIC (Klebsiella pneumoniae 1; Klebsiella pneumoniae, 1, alone, 18 hours, 37° C., read-out: MIC, antibiotic alone) was 1.25 µg/mL and the “MIC, antibiotic B in combination with A” value (Klebsiella pneumoniae 1; in combination with Cefsulodin-Na 25 mcg/ml) was 0.16 µg/mL. The “surviving animals, antibiotic alone” value (Escherichia coli 205; 50 mg/kg s.c.) was 0%.
For `O=C(O)[C@H]1/C(=C/CO)O[C@@H]2CC(=O)N21` [clavulanic acid], the antibiotic action [9] is listed as “insignificant antibiotic action”.
For `CC1(C)[C@H](C(=O)O)N2C(=O)C[C@H]2S1(=O)=O` [penicillanic acid 4,4-dioxide], the antibiotic action [9] is listed as “insignificant antibiotic action”.
With Gentamicin the “MIC, antibiotic alone” value ([10]; alone, 18 hours, 37° C.) was 0.5 µg/mL, the “MIC, antibiotic B in combination with A” value ([10]; in combination with Cefsulodin-Na 0.06 mcg/ml) was 0.25 µg/mL and the “MIC, antibiotic alone” value (Escherichia coli 576; alone, 18 hours, 37° C.) was 2 µg/mL. For the same compound, the “MIC, antibiotic B in combination with A” value (Escherichia coli 576; in combination with Cefsulodin-Na 32 mcg/ml) was 0.25 µg/mL, the “Clearance of the kidneys from both micro-organisms, antibiotic alone” value (“Clearance of the kidneys” below) [11] was 0% and the “surviving animals, antibiotic alone” value ([5]; 0.2 mg/kg s.c.) was 30%. The “MIC, antibiotic alone” value (Proteus rettgeri 1121; alone, 18 hours, 37° C.) was 1 µg/mL, the “MIC, antibiotic B in combination with A” value (Proteus rettgeri 1121; in combination with Cefsulodin-Na 0.8 mcg/ml) was 0.5 µg/mL and the “MIC, antibiotic alone” value ([12]; alone, 18 hours, 37° C.) was 32 µg/mL. The “MIC, antibiotic B in combination with A” value ([12]; in combination with Cefsulodin-Na 2 mcg/ml) was 4 µg/mL, the “Clearance of the kidneys” value ([13]; 0.5 mg/kg s.c.) was 0% and the “Clearance of the kidneys” value ([13]; 2.5 mg/kg s.c.) was 40%.
